# Key:
# Format in all cases: cell-based
# [1] = system: Carrot (Daucus carota) calli; experiment: Callus growth (biomass increase) on medium containing adrenomedullin, carrot
# Text: (§1) Carrot (Daucus carota) and tobacco (Nicotiana tabacum) calli were supplied by Carolina Biological Supply Company (Burlington, N.C., USA) and kept under sterile conditions in solid callus initiation medium for carrots or for tobacco respectively (also acquired from Carolina Biological). The specific composition thereof is available in the company's catalog. A single callus was split into small fragments and these fragments were weighed under sterile conditions and seeded on fresh medium (solid callus initiation medium acquired from Carolina Biologicals) which contained different concentrations of the synthetic peptide human adrenomedullin (AM) (Phoenix Pharmaceuticals, Burlingame, Calif., USA). After 30 days of growth in the dark, the calli were weighed again and the growth rate was calculated as the quotient of the final weight divided by the initial weight. The dry weight of each sample was calculated by subjecting the calli to an oven drying process at […] for 24 hours.
# [2] = system: tobacco (Nicotiana tabacum) calli; experiment: Callus growth (biomass increase) on medium containing adrenomedullin, tobacco
# Text: as §1
# Chlorella = experiment: Microalgae growth in culture, absorbance at 680 nm; details: final concentration of 10^−8 M AM, Guillard F/2 medium, 5% CO2, 12 hours light/12 hours dark
# Description: Two identical cultures of Chlorella in Guillard F/2 medium [Guillard, R. R. L. 1975. Culture of phytoplankton for feeding marine invertebrates. pp 26-60. In Smith W. L. and Chanley M. H (Eds.) Culture of Marine Invertebrate Animals. Plenum Press, New York, USA.; Guillard, R. R. L. and Ryther, J. H. 1962. Studies of marine planktonic diatoms. I. Cyclotella nana Hustedt and Detonula confervacea Cleve. Can. J. Microbiol. 8: 229-239] (250 ml each) were prepared in two separate glass flasks. Then, 100 μl of said Guillard F/2 medium were added to a flask and 100 μl of said Guillard F/2 medium containing the synthetic peptide human adrenomedullin (AM) (Phoenix Pharmaceuticals, Burlingame, Calif., USA) in a sufficient amount to achieve a final concentration of 10^−8 M to the other flask.
# Air containing 5% CO2 was continuously bubbled in the culture. The flasks were illuminated with a photoperiod of 12 hours light/12 hours dark.
# Aliquots from the medium were periodically collected in order to assess the microalgae growth. Absorbance was measured at 680 nm with a Perkin Elmer Lambda 35 UV/Visible spectrofotometer.
# [3] = different concentrations of AM, 30 days of growth in the dark
# [4] = oven drying at 250° C. for 24 hours
substance,measurement,setting,value
human adrenomedullin [AM],most effective concentration of AM for stimulating cell growth,[1]; 30 days of growth in the dark,10^−10 M
same,growth of the calli (growth rate = final weight / initial weight),[1]; [3],growth increase in the calli following a dose-dependent response
same,increase in the biomass when compared with the control,"[1]; optimal dose of AM, 30 days",60%
same,dry weight of the tissue,[1]; [4],differences were maintained
same,most effective concentration of AM for stimulating cell growth,[2]; 30 days of growth in the dark,10^−10 M
same,growth of the calli (growth rate = final weight / initial weight),[2]; [3],growth increase in the calli following a dose-dependent response
same,increase in the biomass when compared with the control,"[2]; optimal dose of AM, 30 days",60%
same,dry weight of the tissue,[2]; [4],differences were maintained
same,microalgae growth (absorbance at 680 nm),Chlorella,grow up faster and reach the stationary phase sooner than the non-treated microalgae
